For test [1], the target named is T1, adenosine A2A receptor (Homo sapiens (Human), UniProt P29274). As to the kind of experiment: cAMP assay in HEK-293 cells expressing human recombinant adenosine A2A receptor. The format is cell-based. The settings on record: for inhibition at 0.1 µM: HEK293, 100 nM compound, read-out: A2a cAMP % inh @ 100 nM. How it is done:
The functional activity of compounds was tested using one of the two assays to detect the present of cAMP. Activation of G-protein coupled receptors (such as A2A) results in activation of adenylcyclase which converts ATP into cAMP which is used as a downstream signaling molecule. Therefore, molecules which act as GPCR (or specifically A2A receptor) antagonists cause a decrease in intracellular cAMP concentration.
Both assays used HEK-293 cells expressing human recombinant adenosine A2A receptor were grown prior to the test in media without antibiotic. Assay 1: The cells were detached by gentle flushing with PBS-EDTA (5 mM EDTA), recovered by centrifugation and suspended in assay buffer (KRH: 5 mM KCl, 1.25 mM MgSO4, 124 mM NaCl, 25 mM HEPES, 13.3 mM Glucose, 1.25 mM KH2PO4, 1.45 mM CaCl2, 0.5 g/L BSA, supplemented with Rolipram).
12 μL of cells were mixed with 6 μL of the test compound at increasing concentrations and then incubated for 10 min. Thereafter 6 μL of the reference agonist was added at a final concentration corresponding to the historical EC80. The plates were then incubated for 30 min at room temperature. After addition of the lysis buffer and 1 hour incubation, cAMP concentrations were estimated, according to the manufacturer specification, with the HTRF® kit.
Assay 2: 100 nL of test articles at 100× of final concentration were transferred to assay plate by Echo. Cells were washed twice with 5 mL of PBS […]. After aspirating the PBS and adding 1.5 mL versine, cells were incubated at 37° C. for 2-5 min. After centrifugation, 4 mL of medium was added and adjusted cell density to 5,000 cells/well with stimulation buffer. 10 μL of cells were aliquoted to the assay plate, centrifuged at 1000 rpm for 1 minute, and incubated for 60 minutes at room temperature. 5 μL 4× Eu-cAMP tracer solution and 5 μL 4× Ulight™-anti-cAMP solution were added to assay plate, followed by centrifugation and 60-minute incubation at room temperature. Plates were read on EnVision.

For test [2], the target named is T1, adenosine A2A receptor. As to the kind of experiment: Radioligand binding competition assay, adenosine A2A receptor. To be noted: for A2A radioligand binding competition assay % residual binding @ 3000 nM: 3000 nM compound; for inhibition at 0.3 µM: 300 nM compound, read-out: A2a binding % inh @ 300 nM. How it is done:
Binding of selected compounds to the adenosine A1, A2A, A2B, and A3 receptors was tested using a binding competition assay.
The general protocol for the radioligand binding competition assay was as follows. Competition binding was performed in duplicate in the wells of a 96 well plate (Master Block, Greiner, 786201) containing binding buffer (optimized for each receptor), membrane extracts (amount of protein/well optimized for each receptor), radiotracer (final concentration optimized for each receptor), and test compound. Nonspecific binding was determined by co-incubation with 200-fold excess of cold competitor. The samples were incubated in a final volume of 0.1 mL at 25° C. for 60 minutes and then filtered over filter plates. Filters were washed six times with 0.5 mL of ice-cold washing buffer (optimized for each receptor) and 50 μL of Microscint 20 (Packard) were added on each filter. The filter plates were sealed, incubated 15 min on an orbital shaker and scintillation counted with a TopCount for 30 sec/filter.
For the adenosine A2A receptor radioligand binding assay, the following modifications were made to the general protocol. GF/C filters (Perkin Elmer, 6005174), presoaked in 0.01% Brij for 2 h at room temperature were used. Filters were washed six times with 0.5 mL of ice-cold washing buffer (50 mM Tris pH 7.4) and 50 μL of Microscint 20 (Packard) was added in each well. The plates were then incubated for 15 min on an orbital shaker and then counted with a TopCount™ for 1 min/well.
Another radioligand binding assay was used to evaluate the binding affinity for the adenosine A2A receptor assay was performed in duplicate in the wells of a 384 plate. Assay buffer contained DPBS 500 mM, MgCl2 0.1 mM, and 1% DMSO. Membrane-bead suspension was prepared by mixing 25.98 μL of human adenosine A2A membrane preparation (Perkin Elmer, RBHA2AM400UA) at 33.4 pg/mL, 28 μL of ADA at 20 pg/mL, and 932 μL of SPA beads at 3.33 mg/mL) and incubated the mixture for 20 min at room temperature. Mixed 20 μL of radiotracer (^3H-SCH 58261) at 15 nM to each well containing test articles at various concentrations and centrifuge the plate at 1000 rpm for 1 minute. Added 30 μL of the membrane-bead suspension to each well. Sealed the plates and incubated for 1 hr at room temperature with vigorous mixing on a plate mixer. Plates were read on Microbeta^2 (Perkin Elmer, 2450-0010).
CHO-K1-A3 cell membranes, 1.5 μg/well; a binding buffer comprising HEPES 25 mM pH 7.4, MgCl2 5 mM, CaCl2 1 mM, 0.5% BSA; a wash buffer comprising HEPES 25 mM pH 7.4, MgCl2 5 mM, CaCl2 1 mM; a Unifilter GF/C—treated for 2 h with 0.5% BS; and 0.4 nM of ^125I-AB-MECA as the tracer. The results of the binding assay are shown in Table B1-1 and are shown as percent residual binding at a given concentration. Percent of residual binding means binding of a compound in the presence of competitor normalized to the amount of binding in the absence of competitor. […] For example, compound 1 strongly bound to A2A (30% residual binding at a concentration of 100 nM), A1 (−3% residual binding at 300 nM) and A2B, (−9% residual binding at 300 nM) but weakly bound to A3 (96% residual binding at 300 nM).

The text below walks through data of patent US10793561B2, “1,8-naphthyridinone compounds and uses thereof” (NUVATION BIO INC., priority 2017, dated 2020).

T1 sequence (P29274 whole entry): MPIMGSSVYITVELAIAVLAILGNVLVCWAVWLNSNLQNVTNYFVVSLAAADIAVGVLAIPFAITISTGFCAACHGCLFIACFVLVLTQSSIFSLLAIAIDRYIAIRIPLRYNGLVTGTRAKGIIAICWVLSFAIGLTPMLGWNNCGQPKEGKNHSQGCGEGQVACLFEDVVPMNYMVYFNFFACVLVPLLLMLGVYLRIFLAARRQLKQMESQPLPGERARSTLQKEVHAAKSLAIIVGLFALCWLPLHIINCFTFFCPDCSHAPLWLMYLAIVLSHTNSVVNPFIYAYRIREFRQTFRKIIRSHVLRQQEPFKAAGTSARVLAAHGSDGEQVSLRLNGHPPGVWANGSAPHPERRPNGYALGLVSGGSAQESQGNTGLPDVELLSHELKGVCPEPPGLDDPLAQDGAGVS

With `O=c1cc[nH]c2nc(-c3ccccc3)c(-c3ccc4ncsc4c3)cc12` [Compound No. 1.24, 6-(benzo[d]thiazol-6-yl)-7-phenyl-1,8-naphthyridin-4(1H)-one], the inhibition at 0.1 µM at adenosine A2A receptor [1] is 83%. The “A2A radioligand binding competition assay % residual binding @ 3000 nM” value on adenosine A2A receptor [2] is 16/ND/ND/ND %.
`Cc1ccc(-c2nc3[nH]ccc(=O)c3cc2-c2ccc3ncccc3c2)o1` [Compound No. 1.25, 7-(5-methylfuran-2-yl)-6-(quinolin-6-yl)-1,8-naphthyridin-4(1H)-one]: the IC50 at adenosine A2A receptor [1] (first cAMP table) was determined as 0.0188 µM. The “A2A radioligand binding competition assay % residual binding @ 3000 nM” value on adenosine A2A receptor [2] is listed as 0/ND/ND/ND %.
Turning to `Cn1ccc(=O)c2cc(-c3ccc4ncccc4c3)c(-c3ccccc3)nc21` [Compound No. 1.8, 1-methyl-7-phenyl-6-(quinolin-6-yl)-1,8-naphthyridin-4(1H)-one], the inhibition at 0.1 µM at adenosine A2A receptor [1] was found to be 0%. Further, the “A2A radioligand binding competition assay % residual binding @ 3000 nM” value at adenosine A2A receptor [2] is recorded as 106/ND/ND/ND %.
Take `O=c1ccc2cc(-c3ccc4[nH]cnc4c3)c(-c3ccccc3)nc2[nH]1` [Compound No. 1.6, 6-(1H-benzo[d]imidazol-5-yl)-7-phenyl-1,8-naphthyridin-2(1H)-one]: the inhibition at 0.1 µM at adenosine A2A receptor [1] came to 43%. Moreover, the “A2A radioligand binding competition assay % residual binding @ 3000 nM” value at adenosine A2A receptor [2] is recorded as 57/ND/ND/ND %.
In the same order, the values of `Cc1cc(-c2cc3c(=O)cc[nH]c3nc2-c2ccccc2)cc(C)n1` [1.3, 6-(2,6-dimethylpyridin-4-yl)-7-phenyl-1,8-naphthyridin-4(1H)-one] are 50% and 50/ND/ND/ND %.
Regarding `O=c1cc[nH]c2nc(-c3ccccc3)c(-c3cnc4ncccc4c3)cc12` [Compound No. 1.11, 2-phenyl-[3,3′-bi(1,8-naphthyridin)]-5(8H)-one], at adenosine A2A receptor [1], the inhibition at 0.1 µM worked out at 49%. For the same compound, at adenosine A2A receptor [2], the “A2A radioligand binding competition assay % residual binding @ 3000 nM” value is reported as 51/ND/ND/ND %.
With `Cc1ccn(-c2nc3[nH]ccc(=O)c3cc2-c2ccc3ncccc3c2)n1` [Compound No. 1.92, 7-(3-methyl-1H-pyrazol-1-yl)-6-(quinolin-6-yl)-1,8-naphthyridin-4(1H)-one], the IC50 at adenosine A2A receptor [1] (second cAMP table) came out at 0.357 µM.
For `O=c1cc[nH]c2nc(-c3cccnc3)c(-c3ccc4ncccc4c3)cc12` [Compound No. 1.28, 7-(pyridin-3-yl)-6-(quinolin-6-yl)-1,8-naphthyridin-4(1H)-one], on adenosine A2A receptor [1], the inhibition at 0.1 µM was 46%.
Regarding `O=c1ccc2cc(-c3ccc4[nH]c(=O)[nH]c4c3)c(-c3ccccc3)nc2[nH]1` [Compound No. 1.32, 6-(2-oxo-2,3-dihydro-1H-benzo[d]imidazol-5-yl)-7-phenyl-1,8-naphthyridin-2(1H)-one], the inhibition at 0.3 µM on adenosine A2A receptor [2] amounted to 0%.
Same read-out and setting: the result for `O=c1ccc2cc(-c3cccc(Cl)c3)c(-c3ccccc3)nc2[nH]1` [Compound No. 1.31, 6-(3-chlorophenyl)-7-phenyl-1,8-naphthyridin-2(1H)-one] reads 0%.
Take `COc1cc(-c2cc3c(=O)cc[nH]c3nc2-c2ccccc2)cc2cccnc12` [Compound No. 1.26, 6-(8-methoxyquinolin-6-yl)-7-phenyl-1,8-naphthyridin-4(1H)-one]: the inhibition at 0.1 µM on adenosine A2A receptor [1] came out at 64%.
The same measure, in the same setting: the result for `O=c1cc[nH]c2nc(-c3ccco3)c(-c3ccc4[nH]cnc4c3)cc12` [Compound No. 1.27, 6-(1H-benzo[d]imidazol-5-yl)-7-(furan-2-yl)-1,8-naphthyridin-4(1H)-one] reads 88%.
On to `O=c1cc[nH]c2nc(-c3ccccc3)c(-c3cccc(Cl)c3)cc12` [Compound No. 1.30, 6-(3-chlorophenyl)-7-phenyl-1,8-naphthyridin-4(1H)-one], for which the inhibition at 0.3 µM on adenosine A2A receptor [2] was determined as 0%.
For the compound `Cc1ccc(-c2nc3[nH]c(=O)ccc3cc2-c2ccc3ncccc3c2)o1` [Compound No. 1.29, 7-(5-methylfuran-2-yl)-6-(quinolin-6-yl)-1,8-naphthyridin-2(1H)-one], the inhibition at 0.1 µM at adenosine A2A receptor [1] turned out to be 77%.
